“And” between values parts separate entries of the source, which are not always exact repeats. Equal values may be shown once.
How the values were obtained:
Experiment in all cases: normalised viability (% of control), CellTiter-Blue; higher = more viable cells (about 100 = DMSO control)
Details in all cases: incubation time: 72 h
CAL-148 [1] = tested on: CAL-148
Procedure: (§1)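 DSRT, CellTiter-Blue viability, 72 h incubation. Signal is normalised to DMSO and benzethonium chloride controls. Value is the normalised response at dose 6.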

CAL-85-1 [2] = tested on: CAL-85-1
Procedure: as §1

HDQ-P1 [3] = tested on: HDQ-P1
Procedure: as §1

DU-4475 [4] = tested on: DU-4475
Procedure: as §1

CAL-51 [5] = tested on: CAL-51
Procedure: as §1

MDA-MB-453 [6] = tested on: MDA-MB-453
Procedure: as §1

CAL-148 [7] = tested on: CAL-148; remark: listed apart in the source
Procedure: (§2)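 DSRT, CellTiter-Blue viability, 72 h incubation. Signal is normalised to DMSO and benzethonium chloride controls. Value is the normalised response at dose 7.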

CAL-85-1 [8] = tested on: CAL-85-1; remark: listed apart in the source
Procedure: as §2

HDQ-P1 [9] = tested on: HDQ-P1; remark: listed apart in the source
Procedure: as §2

DU-4475 [10] = tested on: DU-4475; remark: listed apart in the source
Procedure: as §2

CAL-51 [11] = tested on: CAL-51; remark: listed apart in the source
Procedure: as §2

MDA-MB-453 [12] = tested on: MDA-MB-453; remark: listed apart in the source
Procedure: as §2

Structure (SMILES)	normalised viability (CAL-148 [1])	normalised viability (CAL-85-1 [2])	normalised viability (HDQ-P1 [3])	normalised viability (DU-4475 [4])	normalised viability (CAL-51 [5])	normalised viability (MDA-MB-453 [6])	normalised viability (CAL-148 [7])	normalised viability (CAL-85-1 [8])	normalised viability (HDQ-P1 [9])	normalised viability (DU-4475 [10])	normalised viability (CAL-51 [11])	normalised viability (MDA-MB-453 [12])
O=NN(CCCl)C(=O)NC1CCCCC1 [Lomustine] (300 nM)	106%	104%	84.1%	110%	105%	112%	–	–	–	–	–	–
O=C(O)CC[C@H]1CC[C@@](c2cc(F)ccc2F)(S(=O)(=O)c2ccc(Cl)cc2)CC1 [MK-0752] (30 nM)	115%	100%	93%	117%	106%	103%	–	–	–	–	–	–
NC1(c2ccc(-c3nc4ccn5c(=O)[nH]nc5c4cc3-c3ccccc3)cc2)CCC1 [MK-2206] (30 nM)	97.4%	96.2%	69.6%	103%	101%	99.4%	–	–	–	–	–	–
NC(=O)c1cccc2cn(-c3ccc([C@@H]4CCCNC4)cc3)nc12 [MK-4827] (300 nM)	101%	96.8%	75.7%	73.6%	100%	106%	–	–	–	–	–	–
N[C@@H](Cc1ccc(N(CCCl)CCCl)cc1)C(=O)O [Melphalan] (29.7 nM)	98.7%	88.3%	81.1%	102%	104%	110%	–	–	–	–	–	–
N[C@@H](Cc1ccc(N(CCCl)CCCl)cc1)C(=O)O [Melphalan] (99 nM)	–	–	–	–	–	–	106%	79.4%	100%	86.2%	109%	101%
Cc1c(C(=O)Nc2ccc(N3C[C@@H](C)O[C@@H](C)C3)nc2)cccc1-c1ccc(OC(F)(F)F)cc1 [NVP-LDE225] (300 nM)	95.2%	108%	36.5%	101%	105%	88.1%	–	–	–	–	–	–
Cc1c(C(=O)Nc2ccc(N3C[C@@H](C)O[C@@H](C)C3)nc2)cccc1-c1ccc(OC(F)(F)F)cc1 [NVP-LDE225] (1000 nM)	–	–	–	–	–	–	107%	98.8%	90.1%	118%	99.5%	92.9%
O=C(c1cc(Cc2n[nH]c(=O)c3ccccc23)ccc1F)N1CCN(C(=O)C2CC2)CC1 [Olaparib] (300 nM)	85.3%	92.2%	73.9%	83.2%	93.2%	98%	–	–	–	–	–	–
CO[C@H](C(=O)[C@@H](O)[C@@H](C)O)[C@@H]1Cc2cc3cc(O[C@H]4C[C@@H](O[C@@H]5C[C@@H](O)[C@H](O)[C@@H](C)O5)[C@H](O)[C@@H](C)O4)c(C)c(O)c3c(O)c2C(=O)[C@H]1O[C@H]1C[C@@H](O[C@@H]2C[C@@H](O)[C@@H](O[C@@H]3C[C@](C)(O)[C@H](O)[C@@H](C)O3)[C@@H](C)O2)[C@H](O)[C@@H](C)O1 [Plicamycin] (300 nM)	2.94% and 7.64%	13% and 11.5%	32.7% and 20.9%	0.65% and -0.39%	18.3% and 13.9%	17.4% and 13.2%	–	–	–	–	–	–
C[C@]12C=CC(=O)C=C1CC[C@@H]1[C@@H]2C(=O)C[C@@]2(C)[C@H]1CC[C@]2(O)C(=O)CO [Prednisone] (300 nM)	102%	102%	50.2%	108%	104%	91.8%	–	–	–	–	–	–
CO[C@H]1C[C@@H]2CC[C@@H](C)[C@@](O)(O2)C(=O)C(=O)N2CCCC[C@H]2C(=O)O[C@H]([C@H](C)C[C@@H]2CC[C@@H](O)[C@H](OC)C2)CC(=O)[C@H](C)/C=C(\C)[C@@H](O)[C@@H](OC)C(=O)[C@H](C)C[C@H](C)/C=C/C=C/C=C/1C [Sirolimus] (30 nM)	46.8%	56.1%	60.8%	48.5%	29.3%	29%	–	–	–	–	–	–
CN1CCN(c2nc(C3=C(c4c[nH]c5ccccc45)C(=O)NC3=O)c3ccccc3n2)CC1 [Sotrastaurin] (300 nM)	120%	117%	56.9%	99.9%	87%	96.2%	–	–	–	–	–	–
CC/C(=C(\c1ccccc1)c1ccc(OCCN(C)C)cc1)c1ccccc1 [Tamoxifen] (300 nM)	112%	106%	93.8%	113%	89.5%	97.8%	–	–	–	–	–	–
COc1cc2c(N3CCN(C(=O)Nc4ccc(OC(C)C)cc4)CC3)ncnc2cc1OCCCN1CCCCC1 [Tandutinib] (30 nM)	103%	110%	70.4%	96.3%	106%	108%	–	–	–	–	–	–
C[C@@H](C(=O)O)c1ccc(-c2ccccc2)c(F)c1 [Tarenflurbil] (300 nM)	93.6%	101%	64.5%	89.8%	117%	104%	–	–	–	–	–	–
Cn1nnc2c(C(N)=O)ncn2c1=O [Temozolomide] (300 nM)	89.2%	104%	72.5%	116%	88.4%	93.8%	–	–	–	–	–	–
CC[C@@H]1C(=O)N(C)c2cnc(Nc3ccc(C(=O)N[C@H]4CC[C@H](N5CCN(CC6CC6)CC5)CC4)cc3OC)nc2N1C(C)C [Volasertib] (30 nM)	25.4%	45.9%	49.7%	58.8%	40.5%	31.5%	–	–	–	–	–	–
